Measured values from US4814341A, “2-guanidino-4-(2-furyl) thiazoles as antiulcer agents” (priority 1988, dated 1989).
Where a name gives a salt, the structure may show the parent alone.

Key:
male rats = test: Inhibition of ethanol-induced ulceration in rats; assay type: in vivo; conditions: oral dose of 30 mg/kg, fifteen minutes prior to oral absolute ethanol (1.0 ml); ulcer index vs controls
Experimental: The antiulcer activity of the products of this invention was determined by an ethanol-induced rat ulcer assay. In this test, overnight fasted male rats are given drug (at 30 or 3 mg/kg) or water orally fifteen minutes prior to an orally administered dose of absolute ethanol (1.0 ml.). One hour after the ethanol challenge the animals (8/group) are killed and the stomachs examined for the presence of lesions. After sacrifice the abdomen is opened and a locking hemostat placed at the pylorus. Six ml. of a 4% solution of formaldehyde is injected into the stomach with a gastric feeding tube and a second locking hemostat is used to seal the esophagus. The stomach is removed, opened along the greater curvature and examined for ulceration.
The scoring system used to quantitate the ethanol-induced lesions is given below.
For each group of animals an ulcer index is calculated as follows: EXAMPLE 8 (Cont.)
Ulceration Index=(the sume of the scores of the group)×(the sum of the number of ulcers in the group)×(the fraction of the group havnng any incidence of ulceration).
The percentage inhibition of ulcers is calculated as follows:
% Inhibition=100×[(ulcer index controls) - (ulcer index drug-treated)][…](ulcer index controls).

histamine H2-receptor = target: T1, histamine H2-receptor (Cavia porcellus, UniProt P47747); test: Histamine-H2 antagonist activity in isolated right atria; assay type: cell-based, Guinea pigs; conditions: guinea pig right atria, histamine dose-response, Krebs-Henseleit buffer pH 7.4, 32°C; read-out: pA2 (converted)
T1 construct: the heart removed and the right atria dissected free; from tissue; host or cells: guinea pig isolated right atria
T1 sequence (P47747 whole entry): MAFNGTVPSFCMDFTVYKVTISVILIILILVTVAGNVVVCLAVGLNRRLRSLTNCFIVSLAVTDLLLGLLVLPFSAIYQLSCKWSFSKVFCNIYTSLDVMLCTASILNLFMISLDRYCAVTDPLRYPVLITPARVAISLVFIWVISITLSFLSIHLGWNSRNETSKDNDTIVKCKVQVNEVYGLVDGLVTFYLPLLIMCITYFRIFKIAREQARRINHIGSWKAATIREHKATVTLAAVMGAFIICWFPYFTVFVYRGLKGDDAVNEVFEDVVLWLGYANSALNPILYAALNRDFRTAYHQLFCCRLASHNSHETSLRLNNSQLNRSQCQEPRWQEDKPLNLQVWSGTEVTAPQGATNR
Experimental: The histamine-H2 antagonist activity of compounds of the present invention was determined by the following procedure:
Guinea pigs are killed rapidly with a blow to the head, the heart removed and the right atria dissected free. Atria are suspended, isometrically, in a temperature-controlled (32°±2° C.) tissue bath (10 ml.) containing oxygenated (95% O2; 5% CO2) Krebs-Henseleit buffer (pH 7.4) and are allowed to stabilize approximately one hour during which time the tissue bath is flushed several times. Individual atrial contractions are followed with a force-displacement transducer connected to a cardiotachometer and Grass polygraph recorder. After obtaining a dose-response curve to histamine, the bath containing each atrium is flushed several times with fresh buffer and the atria re-equilibrated to basal rates. Following the return to basal rate, test compounds are added at selected final concentrations and the histamine dose-response curve is again determined in the presence of antagonist. Results are expressed as dose-ratios, the ratio of histamine concentrations required to produce one-half of maximal stimulation in the presence and absence of antagonist, and the apparent dissociation constant of the H2 -receptor antagonist pA2, is determined.

[1] = tested on: conscious Heidenhain pouch dogs; test: Gastric acid antisecretory activity, pentagastrin-stimulated acid output; assay type: in vivo; conditions: 0.1 mg/kg intravenously, overnight-fasted Heidenhain pouch dogs, lowest acid output after drug vs mean before drug
Experimental: The gastric acid antisecretory activity of compounds of the present invention was determined in overnight-fasted, conscious Heidenhain pouch dogs as follows:
Pentagastrin (Pentavlon-Ayerst) is used to stimulate acid output by continuous infusion into a superficial leg vein at doses earlier determined to stimulate near maximal acid output from the gastric pouch. Gastric juice is collected at 30 minute intervals following the start of a pentagastrin infusion and measured to the nearest 0.1 ml. Ten collections are taken for each dog during an experiment. Acid concentration is determined by titrating 1.0 ml. of gastric juice to pH 7.4 with 0.1N sodium hydroxide using an Autoburette and a glass electrode pH meter (Radiometer).
Drug or vehicle is given intravenously or orally 90 minutes following the start of the pentagastrin infusion, at a dose of 2 mg/kg or less. Gastric acid antisecretory effects are calculated by comparing the lowest acid output after drug administration with the mean acid output immediately before drug.

Kb (histamine H2-receptor)	Compound	inhibition of ethanol-induced ulceration (male rats)	inhibition (gastric acid antisecretory effect) [1]
100 nM	CCCCCCN(C)Cc1ccc(-c2csc(NC(=N)N)n2)o1 [3 (2HBr salt), 2-Guanidino-4-(5-[N-n-hexyl-N-methylaminomethyl]-2-furyl)thiazole]	49%	24%
20 nM	Br.Br.CN(C)Cc1ccc(-c2csc(NC(=N)N)n2)o1 [Example 2, 2-Guanidino-4-(5-[N,N-dimethylaminomethyl]-2-furyl)thiazole Dihydrobromide]	7%	44%
1000 nM	CCCCCCNC(=N)Nc1nc(-c2ccc(CN(C)C)o2)cs1 [4 (2HBr salt), 2-(3-n-Hexylguanidino)-4-(5-[N,N-dimethylaminomethyl]-2-furyl)thiazole]	93%	38%
